In this assay the target is T1, rhesus (Macacca Mulatta) H3 receptor (Macaca mulatta, UniProt Q865E1).
T1 construct: rhesus monkey (Macacca Mulatta) 445 amino acid H3 receptor; (Genbank #AY231164); expressed in transfected cells; host or cells: Flp-In T-REx 293 Cell Line (Invitrogen), pcDNA5/FRT/TO vector, induced with tetracycline; membrane preparation
In words: Rhesus H3 radioligand binding assay ([3H]-Methylhistamine displacement, WGA SPA). Also noted: species or system rhesus monkey (Macacca Mulatta). The following applies: [3H]-Methylhistamine 2 nM; rhesus H3 membranes from Flp-In T-REx 293 cells; 25° C., 1 hour; Ki by Cheng-Prusoff equation. The method, then:
Rhesus H3 membranes were prepared from the Flp-In T-REx 293 Cell Line (Invitrogen) stably transfected with pcDNA5/FRT/TO (Invitrogen) containing the rhesus monkey (Macacca Mulatta) 445 amino acid H3 receptor. (Genbank #AY231164). Stably transfected cultures were amplified in tissue culture flasks by standard tissue culture methods and induced to express rhesus H3 by exposure to 500 ng/ml tetracycline (Cellgro) for 24 hours. After induction, cells were dissociated from flasks utilizing Cell Stripper (Cellgro). Cells were centrifuged (1K×g, 5 min) and pellet frozen in an ethanol-dry ice bath to disrupt cell membranes. Frozen cell pellet was re-suspended in 5 mM HEPES (pH 7.4, Invitrogen) at 10 ml/1000 cm2 of harvested cells. The cell suspension was drawn through an 18 gauge needle (2-3×) followed by a 23 gauge needle (2-3×) to further disrupt cell membranes. The cell suspension was centrifuged (40K×g, 30 min). Cell membrane pellet was re-suspended in 5 mM HEPES (pH 7.4, Invitrogen) at a final protein concentration of 10 mg/ml. Rhesus H3 membranes were stored under liquid nitrogen prior to use in [3H]-Methylhistamine and GTPγS radioligand binding assays.
Rhesus H3 radioligand binding assay was performed using rhesus H3 receptor membranes (prepared as described above), [3H]-Methylhistamine (Perkin Elmer) and WGA SPA beads (wheat germ agglutinin scintillation proximity assay) beads (Amersham). The assay was performed in 96-well Opti-Plates (Packard). Each reaction contained 50 μl rhesus H3 membranes (20-30 μg total protein), 50 μl WGA SPA beads (0.1 μg) and 50 μl of 83 Ci/mmol [^3H]-Methylhistamine (final concentration 2 nM) and 50 μl of tested compound. The compounds of this invention and/or vehicle were diluted with binding buffer from 10 mM DMSO stocks. Assay plates were sealed with TopSeal (Perkin Elmer) and mixed on shaker (25° C., 1 hour). Assay plates were read on TopCount scintillation counter (Packard). Results were analyzed by Hill transformation and Ki values were determined by Cheng-Prusoff equation.

In patent US8859588B2, “Substituted N-heteroaryl bipyrrolidine carboxamides, preparation and therapeutic use thereof” (SANOFI, priority 2010, dated 2014) one finds Ki data, which are given here for 13 molecules.

The term Ki denotes the equilibrium dissociation constant of an inhibitor or competing ligand from its target.

T1 sequence (Q865E1 1-445): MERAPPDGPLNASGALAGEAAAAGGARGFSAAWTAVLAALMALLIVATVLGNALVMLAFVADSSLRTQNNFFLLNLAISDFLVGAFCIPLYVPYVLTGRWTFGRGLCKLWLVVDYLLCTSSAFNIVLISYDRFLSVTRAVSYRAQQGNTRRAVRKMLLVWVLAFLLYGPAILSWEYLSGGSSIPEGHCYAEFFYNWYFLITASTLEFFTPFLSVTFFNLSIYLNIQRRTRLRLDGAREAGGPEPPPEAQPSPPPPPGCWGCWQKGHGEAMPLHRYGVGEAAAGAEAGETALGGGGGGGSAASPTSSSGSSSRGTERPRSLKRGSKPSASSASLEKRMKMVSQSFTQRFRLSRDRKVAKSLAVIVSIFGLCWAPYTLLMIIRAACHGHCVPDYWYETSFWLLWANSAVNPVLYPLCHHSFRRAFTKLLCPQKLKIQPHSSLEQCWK

Molecule `Cc1nc(N2CC[C@@H](N3CCC[C@@H]3C)C2)ccc1NC(=O)c1c(C)noc1C` [Example 11, 3,5-Dimethyl-isoxazole-4-carboxylic acid [2-methyl-6-((2S,3′R)-2-methyl-[1,3′]bipyrrolidinyl-1′-yl)-pyridin-3-yl]-amide] showed a Ki of 0.084 µM.

On to `Cc1nc(N2CC[C@H](N3CCC[C@@H]3C)C2)ccc1NC(=O)c1cccc2ccccc12` [Example 3, Naphthalene-1-carboxylic acid [2-methyl-6-((2S,3′S)-2-methyl-[1,3′]bipyrrolidinyl-1′-yl)-pyridin-3-yl]-amide], for which the Ki was 0.00424 µM.

As to `Cc1nc(N2CC[C@H](N3CCC[C@@H]3C)C2)ccc1NS(=O)(=O)C1CCCCC1` [Example 5, Cyclohexanesulfonic acid [2-methyl-6-((2S,3′S)-2-methyl-[1,3′]bipyrrolidinyl-1′-yl)-pyridin-3-yl]-amide], the Ki turned out to be 0.0263 µM.

`Cc1nc(N2CC[C@H](N3CCC[C@@H]3C)C2)ccc1NS(=O)(=O)c1ccc(F)c(F)c1` [Example 6, 3,4-Difluoro-N-[2-methyl-6-((2S,3′S)-2-methyl-[1,3′]bipyrrolidinyl-1′-yl)-pyridin-3-yl]-benzenesulfonamide]: the Ki is 0.00251 µM.

Turning to `Cc1nc(N2CC[C@H](N3CCC[C@@H]3C)C2)ccc1NC(=O)Cc1ccccc1` [Example 4, N-[2-Methyl-6-((2S,3′S)-2-methyl-[1,3′]bipyrrolidinyl-1′-yl)-pyridin-3-yl]-2-phenyl-acetamide], the Ki is 0.0049 µM.

As for `C[C@H]1CCCN1[C@H]1CCN(c2ccc(NC(=O)C3CCOCC3)nc2)C1` [Example 2, Tetrahydro-pyran-4-carboxylic acid [5-((2S,3′S)-2-methyl-[1,3′]bipyrrolidinyl-1′-yl)-pyridin-2-yl]-amide], affinity was put at a Ki of 0.027 µM.

With `Cc1nc(N2CC[C@H](N3CCC[C@@H]3C)C2)ccc1NC(=O)C1CCOCC1` [Example 1, Tetrahydro-pyran-4-carboxylic acid [2-methyl-6-((2S,3′S)-2-methyl-[1,3′]bipyrrolidinyl-1′-yl)-pyridin-3-yl]-amide], affinity was put at a Ki of 0.0024 µM.

With `Cc1ccc(F)cc1C(=O)Nc1ccc(N2CC[C@@H](N3CCC[C@@H]3C)C2)nc1C` [Example 9, 5-Fluoro-2-methyl-N-[2-methyl-6-((2S,3′R)-2-methyl-[1,3′]bipyrrolidinyl-1′-yl)-pyridin-3-yl]-benzamide], the affinity, expressed as Ki, was 0.195 µM.

With `Cc1nc(N2CC[C@H](N3CCC[C@@H]3C)C2)ccc1NC(=O)c1ccccc1` [Example 7, N-[2-Methyl-6-((2S,3′S)-2-methyl-[1,3′]bipyrrolidinyl-1′-yl)-pyridin-3-yl]-benzamide], the Ki came out at 0.00809 µM.

`CC(=O)N1CCC(C(=O)Nc2ccc(N3CC[C@@H](N4CCC[C@@H]4C)C3)nc2C)CC1` [Example 8, 1-Acetyl-piperidine-4-carboxylic acid [2-methyl-6-((2S,3R)-2-methyl-[1,3′]bipyrrolidinyl-1′-yl)-pyridin-3-yl]-amide] showed a Ki of 0.00246 µM.

Consider `Cc1nc(N2CC[C@@H](N3CCC[C@@H]3C)C2)ccc1NS(=O)(=O)c1ccc(F)cc1` [Example 12, 4-Fluoro-N-[2-methyl-6-((2S,3′R)-2-methyl-[1,3′]bipyrrolidinyl-1′-yl)-pyridin-3-yl]-benzenesulfonamide], for which the affinity corresponds to a Ki of 0.0296 µM.

As for `Cc1nc(N2CC[C@@H](N3CCC[C@@H]3C)C2)ccc1NC(=O)c1cccs1` [Example 10, Thiophene-2-carboxylic acid [2-methyl-6-((2S,3′R)-2-methyl-[1,3′]bipyrrolidinyl-1′-yl)-pyridin-3-yl]-amide], the Ki came to 0.036 µM.

In the case of `Cc1nc(N2CC[C@@H](N3CCC[C@@H]3C)C2)ccc1NS(=O)(=O)C1CC1` [Example 13, Cyclopropanesulfonic acid [2-methyl-6-((2S,3′R)-2-methyl-[1,3′]bipyrrolidinyl-1′-yl)-pyridin-3-yl]-amide], the affinity, expressed as Ki, was 0.0371 µM.
